A value given as a limit tells only on which side of the number the result lay.

What all share (format): cell-based, human
One assay concerns K562 target cells. The assay can be described thus: NK assay: lysis of Calcein AM labeled K562 target cells by PBMCs stimulated with the ADCC enhancer. The following applies: FIG. 1. The method, then:
Stimulation of PBMCs: Human Peripheral blood mononuclear cells (PBMCs) were isolated by Ficoll™ density gradient centrifugation and resuspended in RPMI containing 2% heat-inactivated FBS. PBMCs at a concentration of 1 to 3 million cells per mL were incubated with 10-500 nM ADCC enhancer in a humidified CO2 incubator for 18-72 hrs. Activated PBMCs were then used as effector cells in NK and ADCC assays. NK and ADCC Assays: PBMCs activated with the ADCC enhancer were tested for the ability to enhance killing of the NK sensitive target cell line K562 or various tumor cells coated with monoclonal antibodies. Target cells were labeled with the fluorescent dye Calcein AM for 1 hour at 37° C. in a dark humidified CO2 incubator. […] Activated effector cells and labeled target cells were incubated in 96-well tissue culture plates at for 4 hours at 37° C. in a dark humidified CO2 incubator in an assay buffer containing HBSS+Ca/Mg+5% FBS. […] Fluorecence was quantified with a fluorescent microtiter plate reader. The % specific lysis was calculated as (Sample fluorescence-spontaneous fluorescence)*100/(100% fluorescence-spontaneous). 100% fluorescence was determined from wells that contained labeled target cells and detergent such at 0.1% Tween-20 or Triton X-100. Spontaneous fluorescence was determined from wells that contained assay buffer and target cells but not effector cells. […]

Assay [1] deals with breast cancer cell line SKBR3. The experiment in a line: Herceptin-mediated ADCC of SKBR3 cells by PBMC effector cells. To be noted: PBMCs activated with the ADCC enhancer; FIG. 3. The method, then:
(§1) Stimulation of PBMCs: Human Peripheral blood mononuclear cells (PBMCs) were isolated by Ficoll™ density gradient centrifugation and resuspended in RPMI containing 2% heat-inactivated FBS. PBMCs at a concentration of 1 to 3 million cells per mL were incubated with 10-500 nM ADCC enhancer in a humidified CO2 incubator for 18-72 hrs. Activated PBMCs were then used as effector cells in NK and ADCC assays. NK and ADCC Assays: PBMCs activated with the ADCC enhancer were tested for the ability to enhance killing of the NK sensitive target cell line K562 or various tumor cells coated with monoclonal antibodies. Target cells were labeled with the fluorescent dye Calcein AM for 1 hour at 37° C. in a dark humidified CO2 incubator. […] Activated effector cells and labeled target cells were incubated in 96-well tissue culture plates at for 4 hours at 37° C. in a dark humidified CO2 incubator in an assay buffer containing HBSS+Ca/Mg+5% FBS. […] Fluorecence was quantified with a fluorescent microtiter plate reader. The % specific lysis was calculated as (Sample fluorescence-spontaneous fluorescence)*100/(100% fluorescence-spontaneous). 100% fluorescence was determined from wells that contained labeled target cells and detergent such at 0.1% Tween-20 or Triton X-100. Spontaneous fluorescence was determined from wells that contained assay buffer and target cells but not effector cells.

The subject of assay [2] is breast cancer cell line MDA-MB-231. The experiment in a line: Herceptin-mediated ADCC of MDA-MB-231 cells by PBMC effector cells. To be noted: PBMCs activated with the ADCC enhancer; FIG. 3. The method, then: as §1
For assay [3], the system named is rituximab-coated HS-Sultan cells. The assay can be described thus: Rituximab-mediated ADCC of HS-Sultan cells with PBMCs from FcγR-genotyped donors. To be noted: for rituximab-mediated ADCC, specific lysis: ratio 100:1, FIG. 5; for baseline ADCC (percent specific lysis): buffer control. How it is done:
Percent specific lysis is shown for Rituxan-coated HS-Sultan cells incubated with PBMC effector cells at an E:T ratio of 50:1. PBMCs from a patient with the high affinity genotype FcgR2a131 H/H and FcgR3a V/V (solid rectangles) or a patient with the lower affinity genotype FcgR2a131 […] and FcgR3a V/F (open rectangles) were evaluated for ADCC after stimulation with buffer control (baseline) or stimulation with 500 nM ADCC enhancer.
ADCC is mediated through immune effector cells included NK cells that engage the Fc portion of the monoclonal antibody through specific receptors. Patients with single nucleotide polymorphisms in these receptors such as FcRgamma3a position 158 and FcRgamma2a position 131 have a poorer clinical prognosis presumably from poor ADCC due to a lower affinity of the receptor for the monoclonal antibody. […] To determine if this common polymorphism affects the baseline antibody-dependent cellular cytoxicity (ADCC) response and/or response to the ADCC enhancer molecule of the present invention (Compound VTX-2337), PBMCs from donors were genotyped for the two alleles encoding the F and V isoforms, respectively, and tested in vitro. We analyzed rituximab-mediated ADCC using unstimulated PBMC or VTX-2337-stimulated PBMC from 15 donors, including 10 donors with FF or FV phenotype and 5 donors with VV phenotype.
Blood was collected from healthy donors and PBMCs were isolated using a Ficoll gradient. PBMCs were activated by culturing them in the presence of 500 nM VTX-2337 at 37° C. in a humidified 5%CO2 incubator for 48 hours. Activated PBMCs were then incubated with rituximab-coated HS-Sultan cells loaded at a ratio of 100:1 for 4 hours. Lysis was determined by measuring release of the fluorescent dye Calcein AM from the HS-Sultan cells.

For `CCCN(CCC)C(=O)C1=Cc2ccc(-c3ccc(C(=O)N4CCCC4)cc3)cc2N=C(N)C1` [ADCC enhancer, {2-amino-8-[4-(pyrrolidinylcarbonyl)phenyl]-(3H-benzo[f]azepin-4-yl)}-N,N-dipropylcarboxamide], the “lysis of K562 target cells” value in the assay with K562 target cells (PBMCs stimulated with 167 nM ADCC enhancer) was “up to 45%”; in the assay on K562 target cells (PBMCs stimulated with 500 nM ADCC enhancer) it was “greater than 90%”. Besides, the “cell killing of Herceptin coated SKBR3 cells” value in assay [1] is above 80%. The “cell killing of Herceptin coated MDA-MB-231 cells” value in assay [2] is 40-60%. The “rituximab-mediated ADCC, specific lysis” value is given as 55.5±2.6% in assay [3] (PBMC from high affinity VV donors stimulated with 500 nM VTX-2337 for 48 hours) and 40.0±4.1% in assay [3] (PBMC from low affinity FF/FV donors stimulated with 500 nM VTX-2337 for 48 hours). Further, in assay [3] (patient with low affinity genotype, PBMCs stimulated with 500 nM ADCC enhancer, Rituxan-coated targets, E:T 50:1, FIG. 4), the “ADCC (percent specific lysis)” value is recorded as 30%.
As to “Rituxan: monoclonal antibody against the protein CD20”, the “baseline ADCC (percent specific lysis)” value was “approximately 30%” in assay [3] (patient with high affinity genotype, E:T 50:1, FIG. 4) and 10% in assay [3] (patient with lower affinity genotype, E:T 50:1, FIG. 4). In addition, the “rituximab-mediated ADCC, specific lysis” value in assay [3] (unstimulated PBMC from FF/FV donors) was 20.5±2.5%; in assay [3] (unstimulated PBMC from VV donors) it was 31.7±2.9%.
